Experimental data: patent publication US11780830B2, “Triazolone derivatives or salts thereof and pharmaceutical compositions comprising the same” (YUHAN CORPORATION, priority 2018, dated 2023)
Counter-ions that a name gives are not always drawn.

Experiments:
Type in all cases: biochemical
recombinant human VAP-1 = target: T1, recombinant human VAP-1 (Homo sapiens, UniProt Q16853); assay: Activity on recombinant human VAP-1, HRP-coupled Amplex Red hydrogen peroxide assay; details: substrate 1 mM benzylamine; compound incubated with enzyme at 37° C. for 30 minutes; pH 7.4; read-out: Inhibitory Activity (IC50, nM) human VAP-1
T1 construct: purchased R&D systems
T1 sequence (Q16853 1-763): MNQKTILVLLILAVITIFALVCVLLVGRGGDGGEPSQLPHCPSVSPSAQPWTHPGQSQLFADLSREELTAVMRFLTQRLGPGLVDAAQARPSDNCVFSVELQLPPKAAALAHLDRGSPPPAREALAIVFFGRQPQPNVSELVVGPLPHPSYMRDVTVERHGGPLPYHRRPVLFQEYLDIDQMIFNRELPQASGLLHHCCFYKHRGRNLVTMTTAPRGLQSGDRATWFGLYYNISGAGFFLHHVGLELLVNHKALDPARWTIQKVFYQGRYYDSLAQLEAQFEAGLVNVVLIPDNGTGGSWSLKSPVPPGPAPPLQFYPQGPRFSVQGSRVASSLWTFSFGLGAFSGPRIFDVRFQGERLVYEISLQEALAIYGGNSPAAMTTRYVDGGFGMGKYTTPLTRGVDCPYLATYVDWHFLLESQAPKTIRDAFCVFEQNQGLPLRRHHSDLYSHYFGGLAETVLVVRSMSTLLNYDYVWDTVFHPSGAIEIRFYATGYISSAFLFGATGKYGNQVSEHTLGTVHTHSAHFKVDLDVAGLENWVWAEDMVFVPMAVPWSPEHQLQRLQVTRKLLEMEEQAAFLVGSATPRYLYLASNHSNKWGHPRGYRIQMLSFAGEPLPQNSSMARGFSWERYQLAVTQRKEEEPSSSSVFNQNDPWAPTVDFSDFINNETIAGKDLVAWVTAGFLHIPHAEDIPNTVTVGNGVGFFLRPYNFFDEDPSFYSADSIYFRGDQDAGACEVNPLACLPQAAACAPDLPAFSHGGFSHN
Procedure, shortened: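 Dose-response IC50 determined from reduction in resorufin signal rate (544/590 nm, 1-2 h), with 30 min compound preincubation at 37 °C and 1 mM benzylamine as substrate.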

[1] = target: T2, recombinant human MAO-A (monoamine oxidase-A) (Homo sapiens, UniProt P21397); assay: Activity on recombinant human MAO-A, method similar to the VAP-1 assay; details: substrate 0.5 mM tyramine; read-out: Inhibitory Activity (IC50, nM) MAO-A
T2 construct: purchased Sigma-Aldrich
T2 sequence (P21397 1-527): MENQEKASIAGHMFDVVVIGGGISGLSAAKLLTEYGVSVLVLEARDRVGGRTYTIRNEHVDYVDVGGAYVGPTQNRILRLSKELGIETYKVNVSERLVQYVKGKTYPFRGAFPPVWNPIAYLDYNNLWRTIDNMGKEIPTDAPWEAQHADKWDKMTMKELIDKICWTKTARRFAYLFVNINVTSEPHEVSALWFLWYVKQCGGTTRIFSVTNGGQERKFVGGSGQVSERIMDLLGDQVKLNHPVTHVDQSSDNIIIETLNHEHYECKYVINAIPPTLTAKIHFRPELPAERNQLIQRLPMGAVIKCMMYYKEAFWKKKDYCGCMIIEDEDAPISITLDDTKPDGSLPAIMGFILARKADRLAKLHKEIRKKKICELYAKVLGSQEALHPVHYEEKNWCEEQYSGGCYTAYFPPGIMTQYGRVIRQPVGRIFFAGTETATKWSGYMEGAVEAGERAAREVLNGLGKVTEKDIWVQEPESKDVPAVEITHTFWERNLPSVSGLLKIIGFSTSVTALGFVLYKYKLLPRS
Procedure, shortened: (§1)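 Amplex Red/HRP coupled read-out of H2O2 with 0.5 mM tyramine for MAO-A or 1 mM benzylamine for MAO-B, following a 30-min compound–enzyme preincubation at 37° C. IC50 from percent inhibition of signal rate relative to uninhibited control.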

[2] = target: T3, recombinant human MAO-B (monoamine oxidase-B) (Homo sapiens, UniProt P27338); assay: Activity on recombinant human MAO-B, method similar to the VAP-1 assay; details: substrate 1 mM benzylamine; read-out: Inhibitory Activity (IC50, nM) MAO-B
T3 construct: purchased Sigma-Aldrich
T3 sequence (P27338 1-520): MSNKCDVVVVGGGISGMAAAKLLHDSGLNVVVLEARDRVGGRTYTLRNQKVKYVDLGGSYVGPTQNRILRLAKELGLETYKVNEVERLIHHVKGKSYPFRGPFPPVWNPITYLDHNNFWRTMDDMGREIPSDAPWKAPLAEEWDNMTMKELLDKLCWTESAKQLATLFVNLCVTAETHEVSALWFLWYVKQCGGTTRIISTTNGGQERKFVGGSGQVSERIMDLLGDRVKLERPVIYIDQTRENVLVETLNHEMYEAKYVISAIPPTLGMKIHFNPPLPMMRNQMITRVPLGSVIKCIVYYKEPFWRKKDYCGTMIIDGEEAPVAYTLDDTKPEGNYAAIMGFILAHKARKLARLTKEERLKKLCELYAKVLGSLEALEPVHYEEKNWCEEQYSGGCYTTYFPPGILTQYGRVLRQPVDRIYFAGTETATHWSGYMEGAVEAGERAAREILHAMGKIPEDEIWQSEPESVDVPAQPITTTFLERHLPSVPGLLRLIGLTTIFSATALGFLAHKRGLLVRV
Procedure, shortened: as §1

[3] = target: T4, recombinant human DAO (diamine oxidase) (Homo sapiens, UniProt P19801); assay: Activity on recombinant human DAO, method similar to the VAP-1 assay; details: substrate 1 mM putrescine; read-out: Inhibitory Activity (IC50, nM) DAO
T4 construct: purchased R&D systems
T4 sequence (P19801 20-751): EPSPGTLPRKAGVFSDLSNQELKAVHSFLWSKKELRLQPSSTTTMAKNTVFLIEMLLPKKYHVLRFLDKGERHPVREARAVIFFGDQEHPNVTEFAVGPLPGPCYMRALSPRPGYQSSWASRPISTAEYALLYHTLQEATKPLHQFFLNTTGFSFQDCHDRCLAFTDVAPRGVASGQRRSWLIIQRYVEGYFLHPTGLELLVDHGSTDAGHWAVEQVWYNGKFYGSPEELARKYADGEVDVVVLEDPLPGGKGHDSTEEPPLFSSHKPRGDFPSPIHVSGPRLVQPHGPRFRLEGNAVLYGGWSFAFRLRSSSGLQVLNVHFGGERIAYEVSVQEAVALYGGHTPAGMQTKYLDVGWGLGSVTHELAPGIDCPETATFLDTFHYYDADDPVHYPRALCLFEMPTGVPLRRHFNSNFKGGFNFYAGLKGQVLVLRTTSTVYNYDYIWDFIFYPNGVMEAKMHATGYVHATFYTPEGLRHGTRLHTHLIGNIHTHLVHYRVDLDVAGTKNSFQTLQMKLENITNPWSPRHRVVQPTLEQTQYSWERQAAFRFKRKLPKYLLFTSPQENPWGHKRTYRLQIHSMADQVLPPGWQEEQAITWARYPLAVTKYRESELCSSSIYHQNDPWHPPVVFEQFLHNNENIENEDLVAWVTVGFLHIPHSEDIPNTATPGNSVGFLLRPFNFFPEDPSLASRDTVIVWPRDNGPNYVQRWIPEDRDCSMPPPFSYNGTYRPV
Procedure, shortened: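 Inhibition of recombinant human diamine oxidase (DAO, R&D systems) was assessed by the same approach as the VAP-1 assay, using 1 mM putrescine as substrate. Hydrogen peroxide formed was detected through an HRP-coupled Amplex Red reaction yielding fluorescent resorufin, read at 544 nm excitation and 590 nm emission. IC50 values came from four-parameter logistic fitting in GraphPad Prism.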

| Structure (SMILES) | IC50 (recombinant human VAP-1) | IC50 [1] | IC50 [2] | IC50 [3] |
| --- | --- | --- | --- | --- |
| NC/C(=C\F)Cn1ncn(Cc2ccc(-c3cc(F)c4c(c3)CNC4=O)s2)c1=O [Example 70, hydrochloride] | 0.1 nM | > 100000 nM | 2800 nM | 289 nM |
| NC/C(=C\F)Cn1ncn(Cc2ccc(-c3cc(F)c4c(c3)CC(=O)N4)s2)c1=O [Example 71, 5-[5-[[1-[(E)-2-(aminomethyl)-3-fluoro-allyl]-5-oxo-1,2,4-triazol-4-yl]methyl]-2-thienyl]-7-fluoro-indolin-2-one hydrochloride] | 0.2 nM | > 100000 nM | > 10000 nM | 530 nM |
| NC/C(=C\F)Cn1ncn(Cc2ccc(-c3ccc4oc(=O)[nH]c4c3)s2)c1=O [Example 72, 5-[5-(1-[(2E)-2-(aminomethyl)-3-fluoroprop-2-en-1-yl]-5-oxo-1,5-dihydro-4H-1,2,4-triazol-4-ylmethyl)thiophen-2-yl]-1,3-benzooxazol-2(3H)-one hydrochloride] | 0.4 nM | ≥ 100000 nM | < 10 nM | 230 nM |
| CN1C(=O)Cc2cc(-c3ccc(Cn4cnn(C/C(=C/F)CN)c4=O)s3)cnc21 [Example 73, 5-[5-(1-[(2E)-2-(aminomethyl)-3-fluoroprop-2-en-1-yl]-5-oxo-1,5-dihydro-4H-1,2,4-triazol-4-ylmethyl)thiophen-2-yl]-1-methyl-1,3-dihydro-2H-pyrrolo[2,3-b]pyridin-2-one hydrochloride] | 0.2 nM | > 100000 nM | 6100 nM | 93 nM |
| Cc1cc(-c2ccc(Cn3cnn(C/C(=C/F)CN)c3=O)s2)cc2ccc(=O)[nH]c12 [Example 78, 6-[5-[[1-[(E)-2-(aminomethyl)-3-fluoro-allyl]-5-oxo-1,2,4-triazol-4-yl]methyl]-2-thienyl]-8-methyl-1H-quinolin-2-one] | 0.2 nM | > 100000 nM | 4800 nM | 630 nM |
| NC/C(=C\F)Cn1ncn(Cc2ccc(-c3cc4c(c(C(F)(F)F)c3)NC(=O)CC4)s2)c1=O [Example 81, 6-[5-[[1-[(E)-2-(aminomethyl)-3-fluoro-allyl]-5-oxo-1,2,4-triazol-4-yl]methyl]-2-thienyl]-8-(trifluoromethyl)-3,4-dihydro-1H-quinolin-2-one] | 0.18 nM | > 100000 nM | 430 nM | 68 nM |
| NC/C(=C\F)Cn1ncn(Cc2ccc(-c3cc(F)c4[nH]c(=O)ccc4c3)s2)c1=O [Example 82, 6-[5-(1-[(2E)-2-(aminomethyl)-3-fluoroprop-2-en-1-yl]-5-oxo-1,5-dihydro-4H-1,2,4-triazol-4-ylmethyl)thiophen-2-yl]-8-fluoroquinolin-2(1H)-one hydrochloride] | 0.1 nM | > 100000 nM | 6300 nM | 300 nM |

Other lines, results leading:

| IC50 (recombinant human VAP-1) | IC50 [1] | IC50 [2] | IC50 [3] | Structure (SMILES) |
| --- | --- | --- | --- | --- |
| 0.3 nM | > 100000 nM | > 10000 nM | 620 nM | NC/C(=C\F)Cn1ncn(Cc2ccc(-c3ccc4c(c3)C(=O)NCC4)s2)c1=O [Example 74, 7-[5-(1-[(2E)-2-(aminomethyl)-3-fluoroprop-2-en-1-yl]-5-oxo-1,5-dihydro-4H-1,2,4-triazol-4-ylmethyl)thiophen-2-yl]-3,4-dihydroisoquinolin-1(2H)-one hydrochloride] |
| 0.3 nM | > 100000 nM | 2600 nM | 950 nM | NC/C(=C\F)Cn1ncn(Cc2ccc(-c3ccc4c(c3)CCC(=O)N4)s2)c1=O [Example 75, 6-[5-(1-[(2E)-2-(aminomethyl)-3-fluoroprop-2-en-1-yl]-5-oxo-1,5-dihydro-4H-1,2,4-triazol-4-ylmethyl)thiophen-2-yl]-3,4-dihydroquinolin-2(1H)-one hydrochloride] |
| 0.2 nM | > 100000 nM | 1300 nM | 460 nM | Cc1cc(-c2ccc(Cn3cnn(C/C(=C/F)CN)c3=O)s2)cc2c1NC(=O)CC2 [Example 77, 6-[5-(1-[(2E)-2-(aminomethyl)-3-fluoroprop-2-en-1-yl]-5-oxo-1,5-dihydro-4H-1,2,4-triazol-4-ylmethyl)thiophen-2-yl]-8-methyl-3,4-dihydroquinolin-2(1H)-one hydrochloride] |
| 0.1 nM | > 100000 nM | 1900 nM | 210 nM | CN1C(=O)CCc2cc(-c3ccc(Cn4cnn(C/C(=C/F)CN)c4=O)s3)ccc21 [Example 79, 6-[5-(1-[(2E)-2-(aminomethyl)-3-fluoroprop-2-en-1-yl]-5-oxo-1,5-dihydro-4H-1,2,4-triazol-4-ylmethyl)thiophen-2-yl]-1-methyl-3,4-dihydroquinolin-2(1H)-one hydrochloride] |
| 0.2 nM | > 100000 nM | 6300 nM | 380 nM | NC/C(=C\F)Cn1ncn(Cc2ccc(-c3cc(F)c4c(c3)CCC(=O)N4)s2)c1=O [Example 80, 6-[5-[[1-[(E)-2-(aminomethyl)-3-fluoro-allyl]-5-oxo-1,2,4-triazol-4-yl]methyl]-2-thienyl]-8-fluoro-3,4-dihydro-1H-quinolin-2-one] |
